Entries after “also recorded” stand apart in the source; their conditions may differ.
Experiments:
Assay type in all cases: cell-based, human
NF-κB = NF-κB reporter gene assay (pNF-κB-luc) in H1299 cells; settings: siHRP-3-treated H1299 cells, 2 μM BAY 11-7082, 48 hours
Procedure: In addition, the activity of NF-κB in the scrambled siRNA- or siHRP-3-treated H1299 cells was measured by a reporter gene assay using Dual-Reporter™. Specifically, H1299 cells were transfected with 0.5 μg plasmid DNA (pNF-κB-luc; Stratagene, Cambridge, UK) in Dual-Reporter™, and then the luciferase activity in the cells was measured using a luminometer, and the activity of NF-κB was measured at various protein concentrations (FIG. 9A; right).

IκB, c-Myc, Noxa = test: Western blot of IκB, c-Myc, Noxa in H1299 cells; settings: siHRP-3-treated H1299 cells
Procedure: Specifically, a cell lysate obtained by lysing the scrambled siRNA- or siHRP-3-treated H1299 cells cultured in Example 6-2 was analyzed by Western blot using anti-HRP-3 antibodies, anti-IκB antibodies (Santa Cruz Biotechnology Inc., Santa Cruz, Calif., USA), anti-c-Myc antibodies (Calbiochem, San Diego, Calif., USA) and anti-Noxa antibodies (Calbiochem, San Diego, Calif., USA). Herein, β-actin was used as a loading control (FIG. 9A; left). As control cells, H1299 cells were treated with scrambled siRNA alone.
H1299 cells subjected to the inhibition of HRP-3 expression and radiation were obtained in the same manner as described in Example 6-4, except that radiation alone, was performed as anticancer treatment. The thus obtained H1299 cells were lysed to obtain a cell lysate. The expression levels of IκB, c-Myc and Noxa were measured in the same manner as described in Example 8-1, except that the thus obtained lysate was used, and NF-κB activity was also measured in the same manner as described in Example 8-1 (FIG. 9B). As control cells, H1299 cells treated with scrambled siRNA alone were used.
The thus obtained cells were lysed to obtain a cell lysate. The expression levels of IκB, c-Myc and Noxa were measured by Western blot analysis in the same manner as described in Example 8-1, except that the cell lysate was used. Also, NF-κB activity was measured by a reporter gene assay (FIG. 9C). […]

[1] = system: p53, pp53, PUMA, cleaved PARP; test: Western blot of cleaved PARP, p53, pp53, PUMA in A549 cells; settings: siHRP-3-transfected A549 cells, 1 mM NAC
Source text: Additionally, the effect of p53 on the induction of apoptosis was examined. […] Next, the levels of HRP-3, cleaved PARP, p53, pp53, and PUMA proteins produced in the cells were detected by Western blot analysis (FIG. 5D).

ROS [2] = test: ROS production by FACS analysis using DCF-DA in A549 cells; settings: 1 mM NAC, 48 hours
Procedure: Thus, it was predicted that HRP-3 would influence ROS production, and the following experiment was performed in order to confirm this prediction. […] The level of ROS produced in the cells was determined by FACS analysis using 10 nM DCF-DA (FIG. 4C).
Further, A549 cells were transfected with 100 nM scrambled siRNA or HRP-3 siRNA without or with exposure to 10 Gy radiation and cultured, and the level of ROS produced in the cells was assessed by FACS analysis using 10 nM DCF-DA (FIG. 4D).

ROS [3] = test: ROS production by DCF-DA (confocal, FACS) in H1299 cells; settings: 3 mM NAC
Procedure: According to a known method, the thus obtained H1299 cells were treated with 10 nM DCF-DA (2′,7′-dichlorofluorescein diacetate) for 20 minutes, and the produced ROS was detected (M. J. Kim, et al., Cancer Lett, 339:15-24, 2013) (FIG. 8D). The detection of ROS was performed by observing the DCF-DA-stained cells with a laser scanning confocal microscope and analyzing the DCF-DA-stained cells by FACS analysis to determine the production of ROS.

HRP-3 = HRP-3 protein level after radiation or drug treatment in H1299 cells (Western blot); settings: 0.1 μg/ml doxorubicin or 5 ng/ml vinblastine
Procedure: While H1299 cells were cultured in RPMI-1640 medium, the cells were radiated with 10 Gy of ^137Cs-rays, or the cell culture was treated with 0.1 μg/ml doxorubicin or 5 ng/ml vinblastine, and the change in the expression level of HRP-3 as a function of time for a culture time of 48 hours was analyzed by Western blotting or immunofluorescence staining (FIGS. 6D and 6E).

H460 cells = test: Apoptosis by FACS analysis in H460 cells; settings: 0.1 μg/ml doxorubicin or 5 ng/ml vinblastine, 48 hours
Procedure: (§1) Human NSCLC cell lines (A549 and H460) were purchased from the ATCC and cultured in RPMI-1640 medium containing 10% FBS, 50 μg/ml streptomycin, and 50 units/ml penicillin. The cultured cells were irradiated using a ^137Cs-ray source (Atomic Energy of Canada, Ltd., Canada) at a dose rate of 3.81 Gy/min and were treated with 0.1 μg/ml doxorubicin or 5 ng/ml vinblastine. The treated cells were treated with trypsin, washed with PBS, stained with annexin V and propidium iodide, and then analyzed by FACS using a flow cytometer to measure apoptosis (FIG. 1A).
(§2) Specifically, while each type of H460 cells and H1299 cells were inoculated into a culture dish at a density of 3.5×10^5 cells/cm^2 and cultured in RPMI-1640 medium, each type of cell was radiated with 0 and 10 Gy of ^137Cs-rays, or the cell culture was treated with 0 and 0.1 μg/ml of doxorubicin or 0 and 5 ng/ml of vinblastine (Sigma, St. Louis, Mo., USA) and cultured. Next, the death rate of the cells was determined by FACS analysis according to a known method (M. J. Kim, et al., Cancer Lett, 339:15-24, 2013) (FIG. 7A).

H1299 cells = test: Apoptosis by FACS analysis in H1299 cells; settings: 0.1 μg/ml doxorubicin or 5 ng/ml vinblastine, 48 hours
Procedure: as §2
The inhibition of HRP-3 expression in H1299 cells was performed according to the method in Example 6-2, and the H1299 cells, which were inhibited of HRP-3 expression, were subjected to anticancer treatment (radiation, doxorubicin treatment or vinblastine treatment), and their apoptotic rate was measured (FIG. 7D).
The morphological change and apoptotic rate of H1299 cells were measured in the same manner as described in Example 6-4, except that radiation alone was performed as anticancer treatment (FIG. 8A).

A549 cells = test: Apoptosis by FACS analysis (annexin V / propidium iodide) in A549 cells; settings: 0.1 μg/ml doxorubicin or 5 ng/ml vinblastine, 48 hours
Procedure: as §1
In addition, A549 cells were transfected with 100 nM scrambled siRNA or HRP-3 siRNA and cultured for 2 days. Then, changes in the morphology of the cells were observed under an optical microscope, and the death rate of the cells was measured by FACS analysis (FIG. 2D). Also, the levels of two apoptotic markers (cleaved PARP and active caspase-3) were determined by Western blotting (FIG. 2E).
In order to examine this correlation, the effect of HRP-3 in the A549 cells treated with radiation or the drug was analyzed. Specifically, A549 cells were transfected with 100 nM scrambled siRNA or HRP-3 siRNA, and then treated with 10 Gy radiation, 0.1 μg/ml doxorubicin or 5 ng/ml vinblastine and cultured. The death rate of the cultured cells was determined by FACS analysis (FIG. 3B).

Structure (SMILES)	time after treatment at which level of HRP-3 peaked (HRP-3) [h]	apoptotic rate (H460 cells)	apoptotic rate (H1299 cells)	resistance of A549 cells compared to H460 cells (apoptosis) (A549 cells)	also measured
Cc1ccc(S(=O)(=O)/C=C/C#N)cc1 [BAY 11-7082]					increase in NF-κB activity due to inhibition of HRP-3 expression (NF-κB): levels similar to the control cells; IκB, c-Myc and Noxa expression changes due to inhibition of HRP-3 expression (IκB, c-Myc, Noxa; 2 μM BAY 11-7082, 48 hours): levels similar to the control cells
CC(=O)N[C@@H](CS)C(=O)O [NAC, N-acetyl cysteine]					IκB, c-Myc and Noxa expression changes due to inhibition of HRP-3 expression (IκB, c-Myc, Noxa; 3 mM NAC, 48 hours): levels similar to the control cells; induction of cleaved PARP by HRP-3 deletion [1]: significantly decreased; p53 and PUMA levels [1]: dramatically decreased; effect on ROS generation induced by inhibition of HRP-3 expression (ROS [2]): reduced; also recorded: inhibited; ROS production after inhibition of HRP-3 expression and radiation (ROS [3]): decreased to that of control cells
COc1cccc2c1C(=O)c1c(O)c3c(c(O)c1C2=O)C[C@@](O)(C(=O)CO)C[C@@H]3O[C@H]1C[C@H](N)[C@H](O)[C@H](C)O1 [doxorubicin]	12	about 39%	about 23%	higher levels of resistance	
CC[C@]1(O)C[C@@H]2CN(CCc3c([nH]c4ccccc34)[C@@](C(=O)OC)(c3cc4c(cc3OC)N(C)[C@H]3[C@@](O)(C(=O)OC)[C@H](OC(C)=O)[C@]5(CC)C=CCN6CC[C@]43[C@@H]65)C2)C1 [vinblastine]	12	about 43%	about 26%	higher levels of resistance	

— patent US9963701B2, “Pharmaceutical composition for treatment of radiation- or drug-resistant cancer comprising HRP-3 inhibitor” (KOREA INSTITUTE OF RADIOLOGICAL & MEDICAL SCIENCES, priority 2013, dated 2018)
